Measured values taken from publication PMC4774911, “Biochemical Screening of Five Protein Kinases from Plasmodium falciparum against 14,000 Cell-Active Compounds” (PLoS ONE, 2016).
Where “and” joins values, the source holds several entries; their conditions need not be identical. Equal entries are not always repeated.

Columns and labels:
Test in all cases: biochemical
MERTK = biological target: T1, MERTK (Homo sapiens, UniProt Q12866)
T1 sequence (Q12866 1-999): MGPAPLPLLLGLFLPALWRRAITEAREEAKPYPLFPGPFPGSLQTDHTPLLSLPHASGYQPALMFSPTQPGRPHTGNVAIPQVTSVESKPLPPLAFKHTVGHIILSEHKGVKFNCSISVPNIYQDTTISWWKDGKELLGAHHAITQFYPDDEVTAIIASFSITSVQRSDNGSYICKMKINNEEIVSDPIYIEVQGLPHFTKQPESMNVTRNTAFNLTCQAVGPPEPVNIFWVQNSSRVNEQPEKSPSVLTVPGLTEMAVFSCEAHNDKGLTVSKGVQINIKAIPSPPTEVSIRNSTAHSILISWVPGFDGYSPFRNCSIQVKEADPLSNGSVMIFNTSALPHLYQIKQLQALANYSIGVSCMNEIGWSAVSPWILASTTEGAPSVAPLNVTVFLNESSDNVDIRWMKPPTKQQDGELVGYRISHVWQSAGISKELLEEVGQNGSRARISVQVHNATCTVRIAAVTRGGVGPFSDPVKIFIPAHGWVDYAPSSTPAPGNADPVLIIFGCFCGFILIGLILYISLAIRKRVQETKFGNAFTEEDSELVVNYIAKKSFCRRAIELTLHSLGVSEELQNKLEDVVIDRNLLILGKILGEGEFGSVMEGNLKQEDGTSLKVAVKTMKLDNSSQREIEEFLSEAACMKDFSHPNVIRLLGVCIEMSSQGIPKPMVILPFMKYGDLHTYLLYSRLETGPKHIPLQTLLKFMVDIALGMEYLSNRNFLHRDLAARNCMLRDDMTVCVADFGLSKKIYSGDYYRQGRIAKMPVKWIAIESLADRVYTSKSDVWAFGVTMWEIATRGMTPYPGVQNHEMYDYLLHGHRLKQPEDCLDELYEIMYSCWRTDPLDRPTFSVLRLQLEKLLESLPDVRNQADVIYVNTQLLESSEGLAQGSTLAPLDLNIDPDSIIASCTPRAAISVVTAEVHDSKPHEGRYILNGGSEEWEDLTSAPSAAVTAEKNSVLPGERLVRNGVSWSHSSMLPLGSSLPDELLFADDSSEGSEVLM

EPHB4 = biological target: T2, EPHB4 (Homo sapiens, UniProt P54760)
T2 sequence (P54760 1-987): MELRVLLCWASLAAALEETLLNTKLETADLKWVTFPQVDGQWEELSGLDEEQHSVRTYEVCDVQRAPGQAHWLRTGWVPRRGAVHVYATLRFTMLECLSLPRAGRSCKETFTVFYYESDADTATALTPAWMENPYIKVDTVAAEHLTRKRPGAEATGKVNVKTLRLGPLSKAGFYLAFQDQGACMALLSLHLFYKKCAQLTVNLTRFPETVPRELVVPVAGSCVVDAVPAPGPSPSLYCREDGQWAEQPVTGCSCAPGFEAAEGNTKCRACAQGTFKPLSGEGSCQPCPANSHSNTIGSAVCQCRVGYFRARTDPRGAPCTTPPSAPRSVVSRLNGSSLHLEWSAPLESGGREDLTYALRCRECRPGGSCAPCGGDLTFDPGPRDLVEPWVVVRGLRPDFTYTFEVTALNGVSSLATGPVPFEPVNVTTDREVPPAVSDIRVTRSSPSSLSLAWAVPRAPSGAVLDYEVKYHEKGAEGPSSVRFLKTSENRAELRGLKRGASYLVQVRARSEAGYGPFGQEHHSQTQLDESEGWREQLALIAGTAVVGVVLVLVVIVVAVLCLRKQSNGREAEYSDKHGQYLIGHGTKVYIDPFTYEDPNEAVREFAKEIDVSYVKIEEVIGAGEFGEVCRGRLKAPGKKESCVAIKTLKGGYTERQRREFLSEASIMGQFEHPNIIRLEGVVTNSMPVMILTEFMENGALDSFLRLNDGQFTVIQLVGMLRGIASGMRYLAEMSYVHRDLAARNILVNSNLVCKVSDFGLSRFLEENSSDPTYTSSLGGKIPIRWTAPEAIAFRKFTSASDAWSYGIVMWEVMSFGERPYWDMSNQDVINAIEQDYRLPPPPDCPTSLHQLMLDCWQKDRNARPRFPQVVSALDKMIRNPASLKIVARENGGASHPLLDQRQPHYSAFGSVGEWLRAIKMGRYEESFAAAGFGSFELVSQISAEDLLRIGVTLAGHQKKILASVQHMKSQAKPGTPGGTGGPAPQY

mTOR = mTOR (Homo sapiens, UniProt P42345)
MAP4K5 = MAP4K5 (Homo sapiens, UniProt Q9Y4K4)
Chain of MAP4K5 (Q9Y4K4 whole entry): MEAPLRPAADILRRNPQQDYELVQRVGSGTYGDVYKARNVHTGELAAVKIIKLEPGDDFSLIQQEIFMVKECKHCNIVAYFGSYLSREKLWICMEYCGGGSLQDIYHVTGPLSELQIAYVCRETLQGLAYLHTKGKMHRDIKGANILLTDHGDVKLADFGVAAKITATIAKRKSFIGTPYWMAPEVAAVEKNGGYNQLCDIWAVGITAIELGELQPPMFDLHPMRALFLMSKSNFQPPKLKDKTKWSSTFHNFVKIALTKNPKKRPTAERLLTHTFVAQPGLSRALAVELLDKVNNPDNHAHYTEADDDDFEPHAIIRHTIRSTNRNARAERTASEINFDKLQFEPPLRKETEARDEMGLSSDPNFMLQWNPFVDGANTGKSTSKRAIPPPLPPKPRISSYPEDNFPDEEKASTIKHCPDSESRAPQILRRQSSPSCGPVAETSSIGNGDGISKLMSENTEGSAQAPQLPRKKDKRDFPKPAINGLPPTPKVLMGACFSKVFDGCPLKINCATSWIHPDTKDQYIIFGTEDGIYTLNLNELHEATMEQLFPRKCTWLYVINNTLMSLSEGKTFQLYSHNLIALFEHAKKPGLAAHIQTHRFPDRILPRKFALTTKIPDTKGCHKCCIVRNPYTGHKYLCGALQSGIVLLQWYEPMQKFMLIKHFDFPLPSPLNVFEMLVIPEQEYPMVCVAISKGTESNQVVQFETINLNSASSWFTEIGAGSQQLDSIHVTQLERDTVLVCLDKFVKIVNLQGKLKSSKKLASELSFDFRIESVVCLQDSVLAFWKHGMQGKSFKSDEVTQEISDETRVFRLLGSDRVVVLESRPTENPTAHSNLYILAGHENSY

OXSR1 = OXSR1 (Homo sapiens, UniProt O95747)
Chain of OXSR1 (O95747 whole entry): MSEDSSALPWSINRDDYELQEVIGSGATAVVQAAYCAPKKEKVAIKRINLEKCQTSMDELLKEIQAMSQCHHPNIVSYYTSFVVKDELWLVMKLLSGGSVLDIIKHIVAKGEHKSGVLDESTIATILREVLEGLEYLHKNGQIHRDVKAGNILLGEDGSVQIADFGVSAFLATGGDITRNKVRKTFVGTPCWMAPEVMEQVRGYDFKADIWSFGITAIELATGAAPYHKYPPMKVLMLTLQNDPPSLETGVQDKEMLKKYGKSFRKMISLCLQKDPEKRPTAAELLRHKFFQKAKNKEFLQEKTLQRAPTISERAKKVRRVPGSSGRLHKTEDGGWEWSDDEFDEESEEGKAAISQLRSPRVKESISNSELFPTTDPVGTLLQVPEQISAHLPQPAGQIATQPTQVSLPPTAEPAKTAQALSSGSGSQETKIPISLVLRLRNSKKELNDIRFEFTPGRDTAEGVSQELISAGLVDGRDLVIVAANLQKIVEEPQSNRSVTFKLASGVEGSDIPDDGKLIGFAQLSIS

EIF2AK4 = EIF2AK4 (Homo sapiens, UniProt Q9P2K8)
Chain of EIF2AK4 (Q9P2K8 whole entry): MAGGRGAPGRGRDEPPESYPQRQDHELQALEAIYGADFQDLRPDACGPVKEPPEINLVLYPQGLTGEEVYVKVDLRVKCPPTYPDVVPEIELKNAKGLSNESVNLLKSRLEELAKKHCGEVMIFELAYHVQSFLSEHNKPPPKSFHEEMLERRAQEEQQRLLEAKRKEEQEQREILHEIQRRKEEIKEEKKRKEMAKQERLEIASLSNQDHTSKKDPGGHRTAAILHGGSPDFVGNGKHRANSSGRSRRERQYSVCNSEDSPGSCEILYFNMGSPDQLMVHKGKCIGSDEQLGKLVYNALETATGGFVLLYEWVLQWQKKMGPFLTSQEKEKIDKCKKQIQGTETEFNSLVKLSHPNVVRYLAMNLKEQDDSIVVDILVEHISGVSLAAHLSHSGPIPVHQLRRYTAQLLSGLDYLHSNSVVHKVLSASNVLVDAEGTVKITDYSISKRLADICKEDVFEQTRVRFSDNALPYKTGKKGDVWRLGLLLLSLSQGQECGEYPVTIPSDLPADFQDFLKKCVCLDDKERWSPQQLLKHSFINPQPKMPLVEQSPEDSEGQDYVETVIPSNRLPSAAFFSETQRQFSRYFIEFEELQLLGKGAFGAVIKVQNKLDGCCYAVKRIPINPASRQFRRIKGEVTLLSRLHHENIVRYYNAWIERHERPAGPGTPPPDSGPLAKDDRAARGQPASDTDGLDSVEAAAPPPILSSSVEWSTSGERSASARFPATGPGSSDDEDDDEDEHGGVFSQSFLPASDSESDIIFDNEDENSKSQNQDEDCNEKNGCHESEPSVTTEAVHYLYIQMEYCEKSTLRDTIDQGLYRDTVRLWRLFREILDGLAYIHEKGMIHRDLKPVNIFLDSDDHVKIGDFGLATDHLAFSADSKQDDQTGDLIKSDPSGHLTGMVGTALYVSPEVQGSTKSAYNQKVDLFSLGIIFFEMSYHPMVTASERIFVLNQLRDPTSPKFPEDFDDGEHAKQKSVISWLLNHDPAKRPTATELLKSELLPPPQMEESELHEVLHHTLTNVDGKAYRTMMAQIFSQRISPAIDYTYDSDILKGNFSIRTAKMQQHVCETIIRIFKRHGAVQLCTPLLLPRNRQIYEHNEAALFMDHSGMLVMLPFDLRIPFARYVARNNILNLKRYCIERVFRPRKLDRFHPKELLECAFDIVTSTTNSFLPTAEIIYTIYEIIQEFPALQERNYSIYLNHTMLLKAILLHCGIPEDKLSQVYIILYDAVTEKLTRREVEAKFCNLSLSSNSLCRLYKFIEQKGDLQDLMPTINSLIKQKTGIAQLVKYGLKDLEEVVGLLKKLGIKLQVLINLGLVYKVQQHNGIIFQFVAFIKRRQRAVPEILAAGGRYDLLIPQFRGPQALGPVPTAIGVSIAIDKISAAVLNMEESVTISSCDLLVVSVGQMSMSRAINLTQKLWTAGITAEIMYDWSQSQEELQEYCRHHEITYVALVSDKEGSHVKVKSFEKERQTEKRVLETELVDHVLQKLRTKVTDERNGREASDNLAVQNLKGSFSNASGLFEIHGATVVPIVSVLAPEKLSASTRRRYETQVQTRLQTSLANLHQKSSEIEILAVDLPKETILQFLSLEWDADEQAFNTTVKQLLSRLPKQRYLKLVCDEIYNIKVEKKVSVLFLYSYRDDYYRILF

LYN = LYN (Homo sapiens, UniProt P07948)
Chain of LYN (P07948 whole entry): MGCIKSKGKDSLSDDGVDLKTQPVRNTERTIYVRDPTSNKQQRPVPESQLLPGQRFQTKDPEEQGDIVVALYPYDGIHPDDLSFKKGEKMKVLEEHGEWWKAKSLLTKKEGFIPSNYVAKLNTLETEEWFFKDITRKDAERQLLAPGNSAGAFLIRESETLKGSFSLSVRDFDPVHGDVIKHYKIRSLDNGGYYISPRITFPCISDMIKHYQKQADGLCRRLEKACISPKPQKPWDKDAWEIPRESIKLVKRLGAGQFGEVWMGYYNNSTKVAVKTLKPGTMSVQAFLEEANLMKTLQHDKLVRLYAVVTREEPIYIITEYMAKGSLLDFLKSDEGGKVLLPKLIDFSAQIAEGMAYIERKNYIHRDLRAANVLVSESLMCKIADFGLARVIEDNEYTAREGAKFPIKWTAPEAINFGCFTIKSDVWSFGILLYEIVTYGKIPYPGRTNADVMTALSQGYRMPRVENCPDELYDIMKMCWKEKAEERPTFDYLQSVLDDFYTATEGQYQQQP

MAP3K7 = biological target: T3, MAP3K7 (Homo sapiens, UniProt O43318)
T3 sequence (O43318 1-606): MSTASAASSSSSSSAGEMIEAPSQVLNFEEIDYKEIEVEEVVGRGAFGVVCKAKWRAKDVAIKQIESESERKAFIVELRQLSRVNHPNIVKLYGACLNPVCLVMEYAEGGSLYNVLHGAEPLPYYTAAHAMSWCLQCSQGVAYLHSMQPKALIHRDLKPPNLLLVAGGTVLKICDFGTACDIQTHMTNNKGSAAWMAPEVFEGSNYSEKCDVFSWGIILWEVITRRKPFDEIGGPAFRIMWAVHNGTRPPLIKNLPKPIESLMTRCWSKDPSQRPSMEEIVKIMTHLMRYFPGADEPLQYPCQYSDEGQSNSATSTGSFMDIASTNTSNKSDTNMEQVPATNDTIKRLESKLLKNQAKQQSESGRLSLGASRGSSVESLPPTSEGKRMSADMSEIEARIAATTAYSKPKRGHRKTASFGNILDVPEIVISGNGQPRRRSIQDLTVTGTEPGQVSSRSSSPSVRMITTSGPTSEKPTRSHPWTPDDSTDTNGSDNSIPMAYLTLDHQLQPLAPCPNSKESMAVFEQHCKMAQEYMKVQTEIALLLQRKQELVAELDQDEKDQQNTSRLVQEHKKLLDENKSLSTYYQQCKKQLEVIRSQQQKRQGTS

Structure (SMILES) | IC50 (MERTK) [nM] | IC50 (EPHB4) [nM] | IC50 (mTOR) [nM] | IC50 (MAP4K5) | IC50 (OXSR1) | IC50 (EIF2AK4) | IC50 (LYN) | IC50 (MAP3K7)
CN1CCN(c2ccc(Nc3ncc(C#N)c(Nc4ccccc4C(N)=O)n3)cc2)CC1.Cl [TCMDC-134116] | 630 | 4300 | > 20000 | 280 nM and 290 nM | 81 nM and 130 nM | 240 nM and 210 nM | 280 nM and 350 nM | 2000 nM and 1100 nM
Cl.NCC1(c2nc(-c3ccc(Cl)c(O)c3)c(-c3ccncc3)[nH]2)CCCCC1 [TCMDC-141154] | 9300 | 5300 | > 20000 | 5000 nM | > 20000 nM | > 20000 nM | 1300 nM | > 20000 nM
CN(C)CC(O)COc1ccc(Nc2ncc([N+](=O)[O-])c(Nc3ccccc3O)n2)cc1.O=C(O)C(F)(F)F (stereo not drawn) [TCMDC-141399] | 1100 | > 20000 | > 20000 | 4300 nM | > 20000 nM | 260 nM and 350 nM | > 20000 nM | > 20000 nM
